From US20240366649A1, “4-ETHYNYL-3-HYDROXY-TETRAHYDROFURANYL-ADENINE PHOSPHORAMIDATES AND RELATED COMPOUNDS AND THEIR USE IN TREATING MEDICAL CONDITIONS” (ROME THERAPEUTICS, INC., priority 2021, published 2024)

Experiments:
Format in all cases: cell-based
[1] = test system: IFN-β production in PBMCs; assay: Decitabine-stimulated human PBMC assay; settings: anti-CD3/anti-CD28, 10 μM decitabine, 5 days
Procedure: EasySep buffer (32 mL, Stem Cell, cat. #20144) was used to dilute 8 mL of LRSC buffy coat (from fresh Leukopak) with gentle mixing. The diluted buffy coat (20 mL) was transferred into each of two SepMate 50 tubes, and the tubes were filled with 15 mL of Lyphoprep (Stem Cell, ct. #07851) density gradient. The SepMate tubes were then centrifuged at 1200G for 10 minutes at room temperature with the brake on. The top layer of supernatant was collected in SepMate tubes by quickly pouring it into a new 50 mL conical tube. The PBMCs were washed with EasySep buffer ×2 by centrifuging at 300G for 5 minutes. The cells were resuspended in 30 mL of EasySep and centrifuged at 100G for 5 minutes with the brake off, and the platelets were removed. The cells were then resuspended in 6 mL of 1×RBC lysis buffer (InvitroGen) and incubated at 37° C. for 5 minutes. Then, 25 mL of EasySep buffer was mixed into the tube and it was centrifuged at 300G for 5 minutes. The cells were resuspended in 10 mL of EasySep buffer and the cells were then counted with Cellometer (AO/PI). The PBMCs were resuspended in RPMI1640 (ThermoFisher)+10% FBS (HyClone)+p/s at 3×10^6/mL. The PBMCs (100 μL, 300 k PBMCs) were then seeded in a 96-well flat bottom microplate (Corning) that had been precoated with 100 μL of anti-CD3 antibody (10 μg/mL in PBS, Biolegend) or PBS at 4° C., one day before the assay was commenced. […]

[2] = test system: Ovarian cancer OVCAR-8 cells; assay: Cancer cell viability assay with 3D cell colonies (CellTiter-Glo), OVCAR-8; settings: Homo sapiens, 168 h; OVCAR-8, 3D methylcellulose colonies, 7 days
Procedure: (§1) Cancer cell lines were cultured in the following media: • Ovarian cancer OVCAR-8 cells—RPMI media containing 10% FBS • Ovarian cancer SK-OV-3 cells—McCoy's 5a media containing 10% FBS • Ovarian cancer SW756 cells—L-15 (100% air)+10% FBS • Esophageal cancer TE-1 cells—RPMI-1640+10% FBS • Esophageal cancer KYSE-410 cells—RPMI-1640+5˜10% FBS • Esophageal cancer KYSE-70 cells—RPMI-1640+10% h.i.FBS. • Pharyngeal cancer FaDu cells—MEM+0.01 mM NEAA+10% FBS
(§2) Cell colony formation was tested using a 3D methylcellulose-based CellTiter-Glo (CTG) viability assay (Cat. No: G7573, Promega). Briefly, cells were inoculated into 96-well plates (at 1,500 cells per well) into a solution of 0.65% methylcellulose in growth media and incubated overnight at 37° C. in 5% CO2. The next day, serially diluted test compound (islatravir, 4′-ethynyl-2-fluoro-2′-deoxyadenosine) or positive control (cisplatin, Cat. No. 6J015A89, Qilu Pharma) were added at the indicated concentrations, and the cells were incubated for 7 days. On day seven, 100 μL of CTG reagent was added, and the plates were incubated at room temperature for 20 min. Luminescence was read on an Envision Multi Label Reader according to manufacturer's instructions. IC50 values were determined using the following calculation: […]

[3] = test system: Pharyngeal cancer FaDu cells; assay: Cancer cell viability assay with 3D cell colonies (CellTiter-Glo), FaDu; settings: Homo sapiens, 168 h, 3D methylcellulose colonies, 7 days
Procedure: as §1, §2

[4] = test system: Esophageal cancer KYSE-70 cells; assay: Cancer cell viability assay with 3D cell colonies (CellTiter-Glo), KYSE-70; settings: Homo sapiens, 168 h; KYSE-70, 3D methylcellulose colonies, 7 days
Procedure: as §1, §2

[5] = test system: Esophageal cancer TE-1 cells; assay: Cancer cell viability assay with 3D cell colonies (CellTiter-Glo), TE-1; settings: Homo sapiens, 168 h; TE-1, 3D methylcellulose colonies, 7 days
Procedure: as §1, §2

[6] = test system: Ovarian cancer SW756 cells; assay: Cancer cell viability assay with 3D cell colonies (CellTiter-Glo), SW756; settings: Homo sapiens, 168 h; SW756, 3D methylcellulose colonies, 7 days
Procedure: as §1, §2

[7] = test system: Esophageal cancer KYSE-410 cells; assay: Cancer cell viability assay with 3D cell colonies (CellTiter-Glo), KYSE-410; settings: Homo sapiens, 168 h; KYSE-410, 3D methylcellulose colonies, 7 days
Procedure: as §1, §2

For `C#C[C@]1(CO)O[C@@H](n2cnc3c(N)nc(F)nc32)C[C@@H]1O` [islatravir, 4′-ethynyl-2-fluoro-2′-deoxyadenosine], the “production of IFN-β” value [1] was “activated production of IFN-β”, the IC50 [2] was ≤ 10 µM and the IC50 [3] was 10 to 30 µM. For the same compound, the IC50 [4] was 10 to 30 µM, the IC50 [5] was ≤ 10 µM and the IC50 [6] was > 30 µM. For the same compound, the IC50 [7] was > 30 µM.
